From PubChem BioAssay (NCI)
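Values below derive from 48-hour exposures of cells grown in 96-well plates, with endpoints linearly interpolated between the two concentrations bracketing the appropriate inhibition level. Here, GI50 denotes the concentration required for 50% inhibition of growth. TGI is the concentration that stops growth completely.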

Columns and labels:
Assay in all cases: NCI-60 cell line screen, 48 h
786-0 renal = tested on: 786-0 renal
A498 renal = tested on: A498 renal
A549 NSCLC = tested on: A549 NSCLC
ACHN renal = tested on: ACHN renal
CAKI-1 renal = tested on: CAKI-1 renal
CCRF-CEM leukemia = tested on: CCRF-CEM leukemia
COLO 205 colon = tested on: COLO 205 colon
DU-145 prostate = tested on: DU-145 prostate
EKVX NSCLC = tested on: EKVX NSCLC
HCC-2998 colon = tested on: HCC-2998 colon
HCT-116 colon = tested on: HCT-116 colon
HCT-15 colon = tested on: HCT-15 colon
HL-60(TB) leukemia = tested on: HL-60(TB) leukemia
HOP-62 NSCLC = tested on: HOP-62 NSCLC
HOP-92 NSCLC = tested on: HOP-92 NSCLC
HS 578T breast = tested on: HS 578T breast
HT29 colon = tested on: HT29 colon
IGROV1 ovarian = tested on: IGROV1 ovarian
K-562 leukemia = tested on: K-562 leukemia
KM12 colon = tested on: KM12 colon
LOX IMVI melanoma = tested on: LOX IMVI melanoma
M14 melanoma = tested on: M14 melanoma
MALME-3M melanoma = tested on: MALME-3M melanoma
MCF7 breast = tested on: MCF7 breast
MDA-MB-231 breast = tested on: MDA-MB-231 breast
MDA-MB-435 = tested on: MDA-MB-435
NCI-H226 lung = tested on: NCI-H226 lung
NCI-H23 lung = tested on: NCI-H23 lung
NCI-H460 lung = tested on: NCI-H460 lung
NCI-H522 lung = tested on: NCI-H522 lung
OVCAR-3 ovarian = tested on: OVCAR-3 ovarian
OVCAR-4 ovarian = tested on: OVCAR-4 ovarian
OVCAR-5 ovarian = tested on: OVCAR-5 ovarian
OVCAR-8 ovarian = tested on: OVCAR-8 ovarian
PC-3 prostate = tested on: PC-3 prostate
RPMI-8226 leukemia = tested on: RPMI-8226 leukemia
SF-268 CNS = tested on: SF-268 CNS
SF-295 CNS = tested on: SF-295 CNS
SF-539 CNS = tested on: SF-539 CNS
SK-MEL-2 melanoma = tested on: SK-MEL-2 melanoma
SK-MEL-28 melanoma = tested on: SK-MEL-28 melanoma
SK-MEL-5 melanoma = tested on: SK-MEL-5 melanoma
SK-OV-3 ovarian = tested on: SK-OV-3 ovarian
SN12C renal = tested on: SN12C renal
SNB-19 CNS = tested on: SNB-19 CNS
SNB-75 CNS = tested on: SNB-75 CNS
SR leukemia = tested on: SR leukemia
SW-620 colon = tested on: SW-620 colon
T-47D breast = tested on: T-47D breast
TK-10 renal = tested on: TK-10 renal
U251 CNS = tested on: U251 CNS
UACC-257 melanoma = tested on: UACC-257 melanoma
UACC-62 melanoma = tested on: UACC-62 melanoma
UO-31 renal = tested on: UO-31 renal

## CC(=O)O[C@H]1CC[C@@]2(C)C(=CC[C@H]3[C@@H]4C/C(=C\c5cccc(OCCN6CCOCC6)c5)[C@H](OC(C)=O)[C@@]4(C)CC[C@@H]32)C1
786-0 renal
  GI50: 2.63 µM
  TGI: 7.96 µM
A498 renal
  GI50: 15.3 µM
  TGI: 29.1 µM
A549 NSCLC
  GI50: 5.05 µM
  TGI: 20.5 µM
ACHN renal
  GI50: 13.8 µM
  TGI: 42.9 µM
CAKI-1 renal
  GI50: 12.2 µM
  TGI: 59 µM
CCRF-CEM leukemia
  GI50: 3.87 µM
  TGI: 16.7 µM
COLO 205 colon
  GI50: 6.46 µM
  TGI: 19.4 µM
DU-145 prostate
  GI50: 23.3 µM
  TGI: > 100 µM
EKVX NSCLC
  GI50: 11 µM
  TGI: 36.7 µM
HCC-2998 colon
  GI50: 5.32 µM
  TGI: 17.6 µM
HCT-116 colon
  GI50: 4.1 µM
  TGI: 15.9 µM
HCT-15 colon
  GI50: 2.95 µM
  TGI: 11.5 µM
HL-60(TB) leukemia
  GI50: 3.61 µM
  TGI: 14.6 µM
HOP-62 NSCLC
  GI50: 6.29 µM
  TGI: 19.5 µM
HOP-92 NSCLC
  GI50: 4.32 µM
  TGI: 16.8 µM
HS 578T breast
  GI50: 3.07 µM
  TGI: 10.9 µM
HT29 colon
  GI50: 2.16 µM
  TGI: 5.11 µM
IGROV1 ovarian
  GI50: 25.6 µM
  TGI: 80.2 µM
K-562 leukemia
  GI50: 2.95 µM
  TGI: 12.5 µM
KM12 colon
  GI50: 3.84 µM
  TGI: 14.2 µM
LOX IMVI melanoma
  GI50: 5.94 µM
  TGI: 18.4 µM
M14 melanoma
  GI50: 5.91 µM
  TGI: 18.9 µM
MALME-3M melanoma
  GI50: 11.4 µM
  TGI: 23.5 µM
MCF7 breast
  GI50: 10.4 µM
  TGI: 84.5 µM
MDA-MB-231 breast
  GI50: 3.12 µM
  TGI: 13.3 µM
MDA-MB-435
  GI50: 11.1 µM
  TGI: 23.1 µM
NCI-H226 lung
  GI50: 17.9 µM
  TGI: 85.9 µM
NCI-H23 lung
  GI50: 6.97 µM
  TGI: 23.8 µM
NCI-H460 lung
  GI50: 6.39 µM
  TGI: 20.7 µM
NCI-H522 lung
  GI50: 12.9 µM
  TGI: 27.5 µM
OVCAR-3 ovarian
  GI50: 44.7 µM
  TGI: > 100 µM
OVCAR-4 ovarian
  GI50: 8.16 µM
  TGI: > 100 µM
OVCAR-5 ovarian
  GI50: 15 µM
  TGI: 56.2 µM
OVCAR-8 ovarian
  GI50: 8.69 µM
  TGI: 20.8 µM
PC-3 prostate
  GI50: 4.5 µM
  TGI: 16.4 µM
RPMI-8226 leukemia
  GI50: 2.99 µM
  TGI: 9.92 µM
SF-268 CNS
  GI50: 12.6 µM
  TGI: 58.8 µM
SF-295 CNS
  GI50: 2.48 µM
  TGI: 10.5 µM
SF-539 CNS
  GI50: 3.64 µM
  TGI: 13.9 µM
SK-MEL-2 melanoma
  GI50: 12.2 µM
  TGI: 24.5 µM
SK-MEL-28 melanoma
  GI50: 5.48 µM
  TGI: 17.6 µM
SK-MEL-5 melanoma
  GI50: 10.5 µM
  TGI: 22.3 µM
SK-OV-3 ovarian
  GI50: 6.85 µM
  TGI: 34 µM
SN12C renal
  GI50: 25 µM
  TGI: > 100 µM
SNB-19 CNS
  GI50: 9.13 µM
  TGI: 29.3 µM
SNB-75 CNS
  GI50: 3.85 µM
  TGI: 22.8 µM
SR leukemia
  GI50: 5.47 µM
  TGI: 18.6 µM
SW-620 colon
  GI50: 4.87 µM
  TGI: 15.7 µM
T-47D breast
  GI50: 4.18 µM
  TGI: 22.5 µM
TK-10 renal
  GI50: 11.6 µM
  TGI: 48.7 µM
U251 CNS
  GI50: 4.58 µM
  TGI: 16.6 µM
UACC-257 melanoma
  GI50: 2.79 µM
  TGI: 5.04 µM
UACC-62 melanoma
  GI50: 6.1 µM
  TGI: 19.1 µM
UO-31 renal
  GI50: 6.43 µM
  TGI: 19.3 µM
